The text below walks through data of PubChem BioAssay (NCI).

Test systems include RXF 393 renal; HOP-92 NSCLC; NCI-H23 lung; SF-539 CNS; OVCAR-4 ovarian; NCI-H460 lung.
What all share (assay): inhibition of tumour cell growth, NCI panel, 48 h

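Five concentrations, 48 hours, 96-well plates. The concentration for full growth arrest is given as TGI.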

For `O=C1NC(N2CCOCC2)=N/C1=C\c1ccco1`, the TGI in the assay with RXF 393 renal, in the assay with HOP-92 NSCLC, in the assay with NCI-H23 lung, in the assay on SF-539 CNS and with OVCAR-4 ovarian was above 100 µM throughout.
With `C=CCc1cc(-c2nc(=S)[nH][nH]2)ccc1N=NNc1ccc(C(=O)O)cc1`, the TGI in the assay on RXF 393 renal, in the assay with HOP-92 NSCLC, with NCI-H23 lung and with OVCAR-4 ovarian was above 100 µM in each case.
`CC(=O)NC1C(OCc2ccccc2)OC(CO)C(O)C1OCC(=O)N[C@@H](C)C(=O)N[C@H](CCC(=O)NCCCNc1c2ccccc2nc2cccc([N+](=O)[O-])c12)C(N)=O` (some centres not stated): the TGI came out at 0.0835 µM in the assay with NCI-H23 lung, 0.0609 µM in the assay on NCI-H460 lung, 0.279 µM in the assay on SF-539 CNS and 0.267 µM in the assay on OVCAR-4 ovarian.
Regarding `Cc1ccc(S(=O)(=O)n2c3c(c4ccccc42)CCN2C[C@H]([C@H](C)Br)CC[C@@H]32)cc1`, the TGI with RXF 393 renal, in the assay with HOP-92 NSCLC, in the assay on NCI-H23 lung, with NCI-H460 lung, in the assay with SF-539 CNS and with OVCAR-4 ovarian was above 100 µM in each case.
Regarding `COc1cc(O)c2c(c1)C(=O)c1cc3c(c(O)c1C2=O)C(OC1OC(C)C(OC)C(O)C1OC)C(OC)C(C)(O)C3=O` (configuration not stated), the TGI with NCI-H23 lung turned out to be 23.2 µM; in the assay with NCI-H460 lung it was 10.8 µM; with SF-539 CNS it was 17.8 µM; with OVCAR-4 ovarian, 15.5 µM.
With `S=C1NC2=C(CSC/C2=C\c2cccc(Br)c2)C(c2cccc(Br)c2)N1` (configuration not stated), the TGI in the assay on RXF 393 renal, in the assay on NCI-H23 lung, in the assay on NCI-H460 lung, in the assay with SF-539 CNS and in the assay with OVCAR-4 ovarian was above 100 µM each time.
In the case of `O=C(O)CN1CCNCCN(CC(=O)O)CCN(CC(=O)O)CCNCC1`, the TGI with HOP-92 NSCLC, with NCI-H460 lung, with SF-539 CNS and with OVCAR-4 ovarian was above 100 µM throughout.
On to `C=C1CC(C#N)(C#N)[C@H]2C3CCCC3C[C@@H]12` (some centres not stated) (tested in a mixture with another compound), for which the values for the TGI with RXF 393 renal, with HOP-92 NSCLC and with SF-539 CNS were 41.7 µM, 35 µM and 50.2 µM, respectively.
For `CCCCCC#CCOC(=O)C(=[N+]=[N-])P(=O)(c1ccccc1)c1ccccc1`, the TGI in the assay on RXF 393 renal, with HOP-92 NSCLC, in the assay with NCI-H23 lung, in the assay with NCI-H460 lung and with SF-539 CNS was above 10 µM throughout.
`O=C(CCn1ccnc1[N+](=O)[O-])NCCCn1ccnc1[N+](=O)[O-]`: the TGI with RXF 393 renal, in the assay on NCI-H23 lung, with NCI-H460 lung, in the assay with SF-539 CNS and in the assay with OVCAR-4 ovarian was above 100 µM throughout.
As to `OC[C@H]1O[C@@H]2O[C@@](COCc3ccccc3)([C@H](OCc3ccccc3)[C@H]2O)[C@@H]1OCc1ccccc1`, the TGI worked out at 28.1 µM in the assay with HOP-92 NSCLC; 34.1 µM in the assay with NCI-H23 lung; 34.2 µM in the assay on NCI-H460 lung; 32.9 µM with SF-539 CNS; 10.8 µM in the assay on OVCAR-4 ovarian.
Regarding `CC(c1ccccc1)N1CCN(C(C)c2ccccc2)CC1` (configuration not stated), the TGI in the assay with RXF 393 renal, with HOP-92 NSCLC, with NCI-H23 lung, in the assay with NCI-H460 lung and in the assay with OVCAR-4 ovarian was above 100 µM each time.
As for `CCN1CN(c2ccccc2)C2(CCN(CC3COc4ccccc4O3)CC2)C1=O` (configuration not stated), the TGI is 40 µM in the assay with RXF 393 renal, above 100 µM in the assay with NCI-H23 lung, 45.4 µM in the assay with NCI-H460 lung and 33.3 µM in the assay with SF-539 CNS.
As to `O=C(O)CCNc1ncnc2nc[nH]c12`, the TGI with RXF 393 renal, in the assay on HOP-92 NSCLC, in the assay with NCI-H23 lung, in the assay with NCI-H460 lung and in the assay with OVCAR-4 ovarian was above 100 µM in each case.
Regarding `CCCNc1ncnc2c1ncn2C`, the TGI in the assay on RXF 393 renal, in the assay with HOP-92 NSCLC, with NCI-H23 lung, with SF-539 CNS and in the assay with OVCAR-4 ovarian was above 100 µM throughout.
For the compound `O=P(O)(O)C(N=C(Nc1ccccc1)Nc1ccccc1)P(=O)(O)O`, the TGI with RXF 393 renal, in the assay on NCI-H23 lung, in the assay on NCI-H460 lung and with SF-539 CNS was above 100 µM each time.
As for `CCOc1cc(/C=C2/C(C)=NN(c3cccc(Cl)c3)/C2=N/c2nc3ccccc3s2)ccc1O`, the TGI with RXF 393 renal was above 100 µM; in the assay with HOP-92 NSCLC it was 67.8 µM; in the assay on NCI-H23 lung, 50.7 µM; in the assay on NCI-H460 lung, 64 µM; in the assay with SF-539 CNS, 57 µM.
Take `CC1(C)OC[C@@H](O)[C@H](C#N)CO1`: the TGI in the assay with RXF 393 renal, in the assay with NCI-H23 lung, in the assay on NCI-H460 lung, with SF-539 CNS and in the assay on OVCAR-4 ovarian was above 100 µM each time.
Regarding `O=C1c2ccccc2C(=O)N1n1c(Cc2ccc([N+](=O)[O-])cc2)n[nH]c1=O`, the TGI with RXF 393 renal, in the assay on HOP-92 NSCLC, in the assay with NCI-H23 lung, in the assay on NCI-H460 lung and in the assay on SF-539 CNS was above 100 µM throughout.
`O=c1[nH][nH]c(=O)n1CCCCCCn1c(=O)[nH][nH]c1=O`: the TGI in the assay on RXF 393 renal, in the assay on NCI-H23 lung, with NCI-H460 lung, in the assay with SF-539 CNS and in the assay on OVCAR-4 ovarian was above 100 µM in each case.
For the compound `O=C1C=C/C(=N\N=C(c2ccccc2)c2ccccc2)O1`, the TGI in the assay on RXF 393 renal, in the assay on HOP-92 NSCLC, in the assay on NCI-H23 lung and in the assay on OVCAR-4 ovarian was above 10 µM in each case.
Take `O=C(O)[C@H]1CCCN1CP(=O)(O)CN1CCC[C@@H]1C(=O)O`: the TGI in the assay on RXF 393 renal, with HOP-92 NSCLC, with NCI-H23 lung, in the assay on NCI-H460 lung and with OVCAR-4 ovarian was above 100 µM each time.
In the case of `O=[N+]([O-])C(=C(Nc1cccc2cccnc12)Nc1cccc2cccnc12)C(Cl)=C(Cl)Cl`, the TGI was above 100 µM in the assay on RXF 393 renal; above 100 µM in the assay with NCI-H23 lung; above 100 µM in the assay on NCI-H460 lung; above 100 µM in the assay with SF-539 CNS; above 96.1 µM in the assay on OVCAR-4 ovarian.
Regarding `CCNC(=S)NNC(=O)C12CC3CC(CC(C3)C1)C2`, the TGI in the assay on RXF 393 renal, in the assay on NCI-H23 lung, in the assay on NCI-H460 lung, with SF-539 CNS and with OVCAR-4 ovarian was above 100 µM each time.
